Measured values reported in PubChem BioAssay (NCI).
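These data come from cells grown in 96-well plates and exposed to compound for 48 hours at five concentrations. At the TGI there is no net growth.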

Assays:
Test in all cases: DTP human tumour cell line panel, 48 h
A549 NSCLC = tested on: A549 NSCLC
U251 CNS = tested on: U251 CNS
UO-31 renal = tested on: UO-31 renal
SN12C renal = tested on: SN12C renal
ACHN renal = tested on: ACHN renal
IGROV1 ovarian = tested on: IGROV1 ovarian
SK-MEL-5 melanoma = tested on: SK-MEL-5 melanoma
M14 melanoma = tested on: M14 melanoma
RPMI-8226 leukemia = tested on: RPMI-8226 leukemia
UACC-62 melanoma = tested on: UACC-62 melanoma
HCC-2998 colon = tested on: HCC-2998 colon
SR leukemia = tested on: SR leukemia
LOX IMVI melanoma = tested on: LOX IMVI melanoma
SF-295 CNS = tested on: SF-295 CNS
HCT-116 colon = tested on: HCT-116 colon
SNB-75 CNS = tested on: SNB-75 CNS
UACC-257 melanoma = tested on: UACC-257 melanoma
OVCAR-4 ovarian = tested on: OVCAR-4 ovarian
NCI-H522 lung = tested on: NCI-H522 lung
NCI-H460 lung = tested on: NCI-H460 lung
HOP-62 NSCLC = tested on: HOP-62 NSCLC
MDA-N = tested on: MDA-N
PC-3 prostate = tested on: PC-3 prostate
MALME-3M melanoma = tested on: MALME-3M melanoma
MCF7 breast = tested on: MCF7 breast
OVCAR-8 ovarian = tested on: OVCAR-8 ovarian
SK-OV-3 ovarian = tested on: SK-OV-3 ovarian
BT-549 breast = tested on: BT-549 breast
HS 578T breast = tested on: HS 578T breast
OVCAR-3 ovarian = tested on: OVCAR-3 ovarian
KM12 colon = tested on: KM12 colon
K-562 leukemia = tested on: K-562 leukemia
HOP-92 NSCLC = tested on: HOP-92 NSCLC
NCI/ADR-RES ovarian = tested on: NCI/ADR-RES ovarian
786-0 renal = tested on: 786-0 renal
COLO 205 colon = tested on: COLO 205 colon
SNB-19 CNS = tested on: SNB-19 CNS
HT29 colon = tested on: HT29 colon
TK-10 renal = tested on: TK-10 renal
DU-145 prostate = tested on: DU-145 prostate
MDA-MB-435 = tested on: MDA-MB-435
EKVX NSCLC = tested on: EKVX NSCLC
SK-MEL-2 melanoma = tested on: SK-MEL-2 melanoma
HCT-15 colon = tested on: HCT-15 colon
MOLT-4 leukemia = tested on: MOLT-4 leukemia
CAKI-1 renal = tested on: CAKI-1 renal
MDA-MB-231 breast = tested on: MDA-MB-231 breast
CCRF-CEM leukemia = tested on: CCRF-CEM leukemia
OVCAR-5 ovarian = tested on: OVCAR-5 ovarian
NCI-H23 lung = tested on: NCI-H23 lung
SF-268 CNS = tested on: SF-268 CNS
SW-620 colon = tested on: SW-620 colon
T-47D breast = tested on: T-47D breast
SF-539 CNS = tested on: SF-539 CNS
HL-60(TB) leukemia = tested on: HL-60(TB) leukemia
SK-MEL-28 melanoma = tested on: SK-MEL-28 melanoma
RXF 393 renal = tested on: RXF 393 renal
NCI-H226 lung = tested on: NCI-H226 lung
A498 renal = tested on: A498 renal

## Cc1ccc(Nc2nc3ccccc3c(=O)n2N)cc1
A549 NSCLC
  TGI: > 100 µM
U251 CNS
  TGI: > 100 µM
UO-31 renal
  TGI: > 100 µM
SN12C renal
  TGI: > 100 µM
ACHN renal
  TGI: > 100 µM
IGROV1 ovarian
  TGI: > 100 µM
SK-MEL-5 melanoma
  TGI: > 100 µM
M14 melanoma
  TGI: > 100 µM
RPMI-8226 leukemia
  TGI: > 100 µM
UACC-62 melanoma
  TGI: > 100 µM
HCC-2998 colon
  TGI: > 100 µM
SR leukemia
  TGI: > 100 µM
LOX IMVI melanoma
  TGI: > 100 µM
SF-295 CNS
  TGI: > 100 µM
HCT-116 colon
  TGI: > 100 µM
SNB-75 CNS
  TGI: > 100 µM
UACC-257 melanoma
  TGI: > 100 µM
OVCAR-4 ovarian
  TGI: > 100 µM
NCI-H522 lung
  TGI: > 100 µM
NCI-H460 lung
  TGI: > 100 µM
HOP-62 NSCLC
  TGI: > 100 µM
MDA-N
  TGI: > 100 µM
PC-3 prostate
  TGI: > 100 µM
MALME-3M melanoma
  TGI: > 100 µM
MCF7 breast
  TGI: > 100 µM
OVCAR-8 ovarian
  TGI: > 100 µM
SK-OV-3 ovarian
  TGI: > 100 µM
BT-549 breast
  TGI: > 100 µM
HS 578T breast
  TGI: > 100 µM
OVCAR-3 ovarian
  TGI: > 100 µM
KM12 colon
  TGI: > 100 µM
K-562 leukemia
  TGI: > 100 µM
HOP-92 NSCLC
  TGI: > 100 µM
NCI/ADR-RES ovarian
  TGI: > 100 µM
786-0 renal
  TGI: > 100 µM
COLO 205 colon
  TGI: > 100 µM
SNB-19 CNS
  TGI: > 100 µM
HT29 colon
  TGI: > 100 µM
TK-10 renal
  TGI: > 100 µM
DU-145 prostate
  TGI: > 100 µM
MDA-MB-435
  TGI: > 100 µM
EKVX NSCLC
  TGI: > 100 µM
SK-MEL-2 melanoma
  TGI: > 100 µM
HCT-15 colon
  TGI: > 100 µM
MOLT-4 leukemia
  TGI: > 100 µM
CAKI-1 renal
  TGI: > 100 µM
MDA-MB-231 breast
  TGI: > 100 µM
CCRF-CEM leukemia
  TGI: > 100 µM
OVCAR-5 ovarian
  TGI: > 100 µM
NCI-H23 lung
  TGI: > 100 µM
SF-268 CNS
  TGI: > 100 µM
SW-620 colon
  TGI: > 100 µM
T-47D breast
  TGI: > 100 µM
SF-539 CNS
  TGI: > 100 µM
HL-60(TB) leukemia
  TGI: > 100 µM
SK-MEL-28 melanoma
  TGI: > 100 µM
RXF 393 renal
  TGI: > 100 µM
NCI-H226 lung
  TGI: > 100 µM

## Nc1nc(N)c2ncn(-c3ccc(Br)cc3)c2n1
A549 NSCLC
  TGI: > 100 µM
U251 CNS
  TGI: > 100 µM
UO-31 renal
  TGI: > 50.6 µM
SN12C renal
  TGI: 75.6 µM
ACHN renal
  TGI: > 52.8 µM
IGROV1 ovarian
  TGI: 41.5 µM
SK-MEL-5 melanoma
  TGI: > 100 µM
M14 melanoma
  TGI: > 69.2 µM
RPMI-8226 leukemia
  TGI: > 56.1 µM
UACC-62 melanoma
  TGI: > 66.8 µM
HCC-2998 colon
  TGI: > 100 µM
SR leukemia
  TGI: 3.2 µM
LOX IMVI melanoma
  TGI: > 100 µM
SF-295 CNS
  TGI: > 100 µM
HCT-116 colon
  TGI: > 100 µM
SNB-75 CNS
  TGI: 31.2 µM
UACC-257 melanoma
  TGI: > 100 µM
OVCAR-4 ovarian
  TGI: > 100 µM
NCI-H522 lung
  TGI: > 42.5 µM
NCI-H460 lung
  TGI: > 100 µM
HOP-62 NSCLC
  TGI: > 59.8 µM
A498 renal
  TGI: > 61.9 µM
MDA-N
  TGI: > 100 µM
PC-3 prostate
  TGI: > 65 µM
MALME-3M melanoma
  TGI: > 44.9 µM
MCF7 breast
  TGI: > 57.1 µM
OVCAR-8 ovarian
  TGI: > 55.7 µM
SK-OV-3 ovarian
  TGI: 73.9 µM
BT-549 breast
  TGI: > 100 µM
HS 578T breast
  TGI: 25.3 µM
OVCAR-3 ovarian
  TGI: > 64 µM
KM12 colon
  TGI: > 45.7 µM
K-562 leukemia
  TGI: 38.3 µM
HOP-92 NSCLC
  TGI: > 38.1 µM
NCI/ADR-RES ovarian
  TGI: 50.8 µM
786-0 renal
  TGI: > 100 µM
COLO 205 colon
  TGI: > 100 µM
SNB-19 CNS
  TGI: > 100 µM
HT29 colon
  TGI: > 45.6 µM
TK-10 renal
  TGI: > 100 µM
DU-145 prostate
  TGI: > 100 µM
MDA-MB-435
  TGI: > 100 µM
EKVX NSCLC
  TGI: 88.4 µM
SK-MEL-2 melanoma
  TGI: 41.5 µM
HCT-15 colon
  TGI: > 100 µM
MOLT-4 leukemia
  TGI: 37.3 µM
CAKI-1 renal
  TGI: > 45.3 µM
MDA-MB-231 breast
  TGI: > 86.1 µM
CCRF-CEM leukemia
  TGI: 34.7 µM
OVCAR-5 ovarian
  TGI: > 73.1 µM
NCI-H23 lung
  TGI: > 93.2 µM
SF-268 CNS
  TGI: > 63.8 µM
SW-620 colon
  TGI: > 100 µM
T-47D breast
  TGI: > 100 µM
SF-539 CNS
  TGI: 46.5 µM
SK-MEL-28 melanoma
  TGI: > 100 µM
RXF 393 renal
  TGI: > 78.6 µM
NCI-H226 lung
  TGI: > 100 µM
